In ChEMBL document CHEMBL1201862, “PubChem BioAssay data set” (2004):
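Compound exposure: 48 hours, 5 concentrations, 96-well plates. GI50: concentration for 50% inhibition of growth.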 The source made the active and inactive calls. Cut-off read from the data, not from the text of the source: active = GI50 up to about 1.1 µM and inactive = higher.

Columns and labels:
Experiment in all cases: NCI tumour cell line growth inhibition, 48 h
[1] = test system: A549
[2] = test system: ACHN
[3] = test system: BT-549
[4] = test system: HOP-92
[5] = test system: HT-29
[6] = test system: IGROV-1
[7] = test system: K562
[8] = test system: KM12
[9] = test system: MDA-MB-231
[10] = test system: NCI-H23
[11] = test system: NCI/ADR-RES
[12] = test system: OVCAR-3
[13] = test system: OVCAR-8
[14] = test system: RPMI-8226
[15] = test system: SNB-75
[16] = test system: U-251
[17] = test system: SF-539
[18] = test system: SN12C
[19] = test system: HCC 2998

Row | Structure (SMILES) | GI50 [1] | GI50 [2] | GI50 [3] | GI50 [4] | GI50 [5] | GI50 [6] | GI50 [7] | GI50 [8] | GI50 [9] | GI50 [10] | GI50 [11] | GI50 [12] | GI50 [13] | GI50 [14] | GI50 [15] | GI50 [16] | GI50 [17] | GI50 [18] | GI50 [19]
1 | O=c1oc2ccccc2cc1-c1cc2ccccn2c1 | > 100 µM (inactive) | > 100 µM (inactive) | > 100 µM (inactive) | > 100 µM (inactive) | > 100 µM (inactive) | > 100 µM (inactive) | > 100 µM (inactive) | > 100 µM (inactive) | > 100 µM (inactive) | > 100 µM (inactive) | > 100 µM (inactive) | > 100 µM (inactive) | > 100 µM (inactive) | > 100 µM (inactive) | > 100 µM (inactive) | > 100 µM (inactive) |  |  | 
2 | CSc1nc(C#N)c(N)n1C | > 100 µM (inactive) | > 100 µM (inactive) | > 100 µM (inactive) | > 100 µM (inactive) |  | > 100 µM (inactive) | > 100 µM (inactive) | > 100 µM (inactive) | > 100 µM (inactive) | > 100 µM (inactive) | > 100 µM (inactive) | > 100 µM (inactive) | > 100 µM (inactive) | > 100 µM (inactive) |  | > 100 µM (inactive) | > 100 µM (inactive) | > 100 µM (inactive) | 
3 | O=C1CCC(=O)N1CNc1ccc2c(c1)Sc1ccccc1O2 | 33 µM (inactive) | 47 µM (inactive) | 26.6 µM (inactive) | 21.5 µM (inactive) | 23.5 µM (inactive) | 38.9 µM (inactive) | 49.8 µM (inactive) | 36.7 µM (inactive) | 41.9 µM (inactive) | 38.5 µM (inactive) | 42.9 µM (inactive) | 26.5 µM (inactive) | 25.9 µM (inactive) | 33.9 µM (inactive) |  | 30.3 µM (inactive) | 15.6 µM (inactive) | 27.6 µM (inactive) | 
4 | O=C(Nc1ccc(Cl)c(Cl)c1)C(=O)C(C1OC(=O)c2ccccc21)[N+](=O)[O-] (stereo not given) | > 100 µM (inactive) | > 100 µM (inactive) | > 100 µM (inactive) | 81.7 µM (inactive) | > 100 µM (inactive) | > 100 µM (inactive) |  | > 100 µM (inactive) | > 100 µM (inactive) | > 100 µM (inactive) | > 100 µM (inactive) | > 100 µM (inactive) | > 100 µM (inactive) |  | > 100 µM (inactive) | > 100 µM (inactive) | > 100 µM (inactive) | > 100 µM (inactive) | > 100 µM (inactive)
5 | Cn1c(CO)ccc1-c1ccc(-c2ccc[se]2)[se]1 | 17.1 µM (inactive) | 72.1 µM (inactive) | 21.8 µM (inactive) |  | 31.7 µM (inactive) | 0.0384 µM (active) | 0.449 µM (active) | 19.8 µM (inactive) | 23.6 µM (inactive) | 20.5 µM (inactive) | 32.7 µM (inactive) |  | 23 µM (inactive) | 20.9 µM (inactive) | 12.8 µM (inactive) |  | 17.3 µM (inactive) | > 52.4 µM (inactive) | 0.798 µM (active)
6 | O=C(c1ccccc1)N1N=C(C(F)(F)F)CC1(O)C(F)(F)F (stereo not given) | > 100 µM (inactive) | > 100 µM (inactive) | > 100 µM (inactive) |  | > 100 µM (inactive) |  | > 100 µM (inactive) | > 100 µM (inactive) | > 100 µM (inactive) | > 100 µM (inactive) | > 100 µM (inactive) | > 100 µM (inactive) | > 100 µM (inactive) | > 100 µM (inactive) | > 100 µM (inactive) | > 100 µM (inactive) | > 100 µM (inactive) | > 100 µM (inactive) | > 100 µM (inactive)
7 | O=C1CC(c2ccco2)C2(C(=O)NC(=O)NC2=O)C(c2ccco2)C1 (stereo not given) | > 75 µM (inactive) | > 75 µM (inactive) | > 75 µM (inactive) |  | > 75 µM (inactive) | > 75 µM (inactive) | > 75 µM (inactive) | > 75 µM (inactive) | > 75 µM (inactive) | > 75 µM (inactive) | > 75 µM (inactive) | > 75 µM (inactive) | > 75 µM (inactive) | > 75 µM (inactive) | > 75 µM (inactive) | > 75 µM (inactive) | > 75 µM (inactive) | > 75 µM (inactive) | > 75 µM (inactive)
8 | CC(C)(C)OC(=O)NCC(CNC(=O)OC(C)(C)C)c1nc(C(N)=O)cs1 | > 100 µM (inactive) | > 100 µM (inactive) | > 100 µM (inactive) | > 100 µM (inactive) | > 100 µM (inactive) | > 100 µM (inactive) | > 100 µM (inactive) | > 100 µM (inactive) | > 100 µM (inactive) | > 100 µM (inactive) | > 100 µM (inactive) | > 100 µM (inactive) | > 100 µM (inactive) |  | 0.818 µM (active) | > 100 µM (inactive) | > 100 µM (inactive) | > 100 µM (inactive) | > 100 µM (inactive)
